Test results as given in patent US5217877A, “Process for the preparation of α-glucosidase inhibitor, pradimicin Q” (Bristol-Myers Squibb Company, priority 1991, dated 1993).
pIC50: −log10 of the molar value. In brackets after ≈: the same amount, converted by molar mass.

Legend:
[1] = biological target: T1, α-glucosidase (Sigma G-5003) (Saccharomyces cerevisiae, UniProt P53341); assay: α-Glucosidase inhibitory activity (p-nitrophenyl-α-D-glucopyranoside hydrolysis); assay type: biochemical; details: for pIC50 / IC50 (α-glucosidase inhibitory activity): 37° C., 15 minutes, pH 6.8, 0.7 mM p-nitrophenyl-α-D-glucopyranoside
T1 construct: purchased Sigma G-5003
Procedure: Forty μl of α-glucosidase (Sigma G-5003, #11 U/mg protein) (0.1 mg/ml in 100 mM phosphate buffer, pH 6.8=[…]) for tests (or the buffer for the control), 950 μl of 0.7 mM p-nitrophenyl-α-D-glucopyranoside (Sigma N1377), and 10 μl of the assay compound (various concentrations dissolved in DMSO) were mixed and incubated at 37° C. for 15 minutes. To the reaction mixture, 1.0 ml of 0.2N NaOH and then 1.0 ml of n-butanol were added and voltex-mixed. […] IC50 was determined from a standard curve of p-nitrophenol released when the assay was run without the test compound (0% inhibition) and when the assay was run without the enzyme (100% inhibition).

mouse melanoma B16 cells = assay: cells; details: B16, read-out: cytotoxic activity IC50

T1 sequence (P53341 whole entry): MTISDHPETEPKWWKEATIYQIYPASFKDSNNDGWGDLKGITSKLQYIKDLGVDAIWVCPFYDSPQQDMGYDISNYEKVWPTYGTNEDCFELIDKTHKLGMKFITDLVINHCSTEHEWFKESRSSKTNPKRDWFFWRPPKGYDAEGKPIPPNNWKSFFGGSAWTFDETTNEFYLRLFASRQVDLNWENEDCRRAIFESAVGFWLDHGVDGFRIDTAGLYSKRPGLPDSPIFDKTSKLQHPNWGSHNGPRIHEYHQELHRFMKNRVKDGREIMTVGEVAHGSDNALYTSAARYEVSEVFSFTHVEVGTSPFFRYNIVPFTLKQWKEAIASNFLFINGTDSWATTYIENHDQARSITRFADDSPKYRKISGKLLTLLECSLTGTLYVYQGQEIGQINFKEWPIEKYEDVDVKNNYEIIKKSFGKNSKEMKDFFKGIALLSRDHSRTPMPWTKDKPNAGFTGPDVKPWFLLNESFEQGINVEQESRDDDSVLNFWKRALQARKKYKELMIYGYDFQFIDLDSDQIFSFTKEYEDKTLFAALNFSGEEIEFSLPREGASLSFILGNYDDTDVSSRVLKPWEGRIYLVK

| Structure (SMILES) | pIC50 [1] | IC50 (mouse melanoma B16 cells) [µg/mL] | α-glucosidase inhibitory activity (in words) [1] | IC50 (α-glucosidase inhibitory activity) [1] [µg/mL] |
| --- | --- | --- | --- | --- |
| Cc1cc2c(c(O)c1C(=O)O)-c1c(O)c3c(c(O)c1CC2O)C(=O)c1c(O)cc(O)cc1C3=O (stereo not drawn) [Pradimicin Q, pradimicin Q] | 5.19 | 75 (≈ 162 µM) |  |  |
| CN[C@@H]1[C@H](O[C@@H]2O[C@H](CO)[C@H](O)[C@H](O)[C@@H]2O)[C@@H](O)[C@H](O[C@@H]2c3cc(C)c(C(=O)N[C@H](C)C(=O)O)c(O)c3-c3c(cc4c(c3O)C(=O)c3cc(OC)cc(O)c3C4=O)[C@@H]2O)O[C@H]1C [Pradimicin L] |  |  | no α-glucosidase inhibitory activity | > 100 |
| COc1cc(O)c2c(c1)C(=O)c1c(cc3c(c1O)-c1c(cc(C)c(C(=O)N[C@H](CO)C(=O)O)c1O)[C@H](O[C@@H]1O[C@H](C)[C@H](N(C)C)[C@H](O[C@@H]4OC[C@@H](O)[C@H](O)[C@H]4O)[C@H]1O)[C@H]3O)C2=O [N,N-dimethylpradimicin FA-2] |  |  | no α-glucosidase inhibitory activity | > 100 |
| COc1cc(O)c2c(c1)C(=O)c1c(O)c3c(c(OC)c1C2=O)C(O)C(O)c1cc(C)c(C(=O)NC(C)C(=O)O)c(O)c1-3 (stereo not drawn) [Benanomicin C, benanomicin C] | 3.97 |  |  |  |
| CNC1C(C)OC(OC2c3cc(C)c(C(=O)NC(C)C(=O)O)c(O)c3-c3c(cc4c(c3O)C(=O)c3cc(OC)cc(O)c3C4=O)C2O)C(O)C1OC1OCC(O)C(O)C1O (stereo not drawn) [Pradimicin A] | < 3.92 |  | no α-glucosidase inhibitory activity |  |
